Biological target: T1, GFP-tagged cIAP-2 (Homo sapiens, UniProt Q13489)
T1 construct: expressed in transfected cells
Experiment: GFP-tagged cIAP-2 degradation assay (loss of GFP signal)
Format: cell-based
Conditions: GFP-cIAP expressing melanoma cell line A375, treatment for two hours; read-out: IC50 for GFP-tagged cIAP-2 degradation
Text: To evaluate the Smac-mimetic activity in cancer cell lines, we have developed intra-cellular green fluorescence protein (GFP)-tagged cIAP-1 and GFP-tagged cIAP-2 assays. […].

T1 sequence (Q13489 whole entry): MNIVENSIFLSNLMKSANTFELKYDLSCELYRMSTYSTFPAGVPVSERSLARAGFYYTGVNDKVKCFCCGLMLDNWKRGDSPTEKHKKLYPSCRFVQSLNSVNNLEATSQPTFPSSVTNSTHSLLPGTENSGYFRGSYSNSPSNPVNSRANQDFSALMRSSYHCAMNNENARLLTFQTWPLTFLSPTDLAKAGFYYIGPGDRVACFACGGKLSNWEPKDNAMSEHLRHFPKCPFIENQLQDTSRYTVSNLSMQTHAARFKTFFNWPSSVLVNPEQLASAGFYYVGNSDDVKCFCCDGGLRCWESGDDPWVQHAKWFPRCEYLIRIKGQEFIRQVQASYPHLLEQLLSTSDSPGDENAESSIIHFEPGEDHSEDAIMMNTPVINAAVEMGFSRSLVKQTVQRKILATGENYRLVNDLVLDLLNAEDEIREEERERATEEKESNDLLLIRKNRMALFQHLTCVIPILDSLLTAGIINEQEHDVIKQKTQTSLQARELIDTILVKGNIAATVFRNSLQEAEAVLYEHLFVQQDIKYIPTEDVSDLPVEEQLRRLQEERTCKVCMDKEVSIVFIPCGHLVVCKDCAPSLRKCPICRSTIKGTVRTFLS

DC50: 150 nM
Compound: CC[C@H](NC(=O)[C@H](C)NC)C(=O)N1C[C@@H](O)C[C@H]1Cc1c(-c2[nH]c3cc(F)ccc3c2C[C@@H]2C[C@H](O)CN2C(=O)[C@H](CC)NC(=O)[C@H](C)NC)[nH]c2cc(F)ccc12 [Compound 15, birinapant]

— patent US20130196927A1, “Smac Mimetic Therapy” (priority 2012, published 2013)
